Assay results published in patent publication US20260092074A1, “Annelated Pyridines as Steroidogenesis Inhibitors, Preparation Method and Use Thereof” (Guangzhou Vinnocent Pharmaceutical Limited, priority 2022, published 2026).
pIC50: −log10 of the molar value.

Columns and labels:
human CYP11B1 = target: T1, human CYP11B1 (Homo sapiens, UniProt P15538); assay: Inhibition of hCYP11B1 in transfected V79 cells; assay type: cell-based; details: hamster V79 cells expressing human CYP11B1; substrate 11-deoxycortisol 200 nM
T1 construct: expressed in transfected cells
T1 sequence (P15538 25-503): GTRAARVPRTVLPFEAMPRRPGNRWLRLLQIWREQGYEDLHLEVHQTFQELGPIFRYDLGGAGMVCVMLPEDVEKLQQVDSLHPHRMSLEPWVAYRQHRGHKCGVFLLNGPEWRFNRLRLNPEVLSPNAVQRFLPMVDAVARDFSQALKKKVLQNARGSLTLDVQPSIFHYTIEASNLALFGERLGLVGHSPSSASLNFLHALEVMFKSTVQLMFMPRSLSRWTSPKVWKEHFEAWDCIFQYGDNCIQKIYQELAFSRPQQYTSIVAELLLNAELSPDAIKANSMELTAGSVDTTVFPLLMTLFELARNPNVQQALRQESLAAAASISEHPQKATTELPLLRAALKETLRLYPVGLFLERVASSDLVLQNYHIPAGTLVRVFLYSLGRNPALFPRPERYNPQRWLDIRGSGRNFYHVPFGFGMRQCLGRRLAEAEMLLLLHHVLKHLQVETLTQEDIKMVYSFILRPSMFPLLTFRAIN
How it was run: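 Reactions started with 200 nM 11-deoxycortisol, ran for 30 min and were stopped with ethyl acetate, after a 2 h compound preincubation. The host was stably transfected V79 hamster cells carrying human CYP11B1 plus rat P450 reductase. Percent inhibition, from LC-MS/MS or HPLC (260 nm) quantitation of substrate and product, gave the IC50.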

human CYP11B2 = target: T2, human CYP11B2 (Homo sapiens, UniProt P19099); assay: Inhibition of hCYP11B2 in transfected V79 cells; assay type: cell-based; details: hamster V79 cells expressing human CYP11B2; substrate 11-deoxycorticosterone 200 nM
T2 construct: expressed in transfected cells
T2 sequence (P19099 25-503): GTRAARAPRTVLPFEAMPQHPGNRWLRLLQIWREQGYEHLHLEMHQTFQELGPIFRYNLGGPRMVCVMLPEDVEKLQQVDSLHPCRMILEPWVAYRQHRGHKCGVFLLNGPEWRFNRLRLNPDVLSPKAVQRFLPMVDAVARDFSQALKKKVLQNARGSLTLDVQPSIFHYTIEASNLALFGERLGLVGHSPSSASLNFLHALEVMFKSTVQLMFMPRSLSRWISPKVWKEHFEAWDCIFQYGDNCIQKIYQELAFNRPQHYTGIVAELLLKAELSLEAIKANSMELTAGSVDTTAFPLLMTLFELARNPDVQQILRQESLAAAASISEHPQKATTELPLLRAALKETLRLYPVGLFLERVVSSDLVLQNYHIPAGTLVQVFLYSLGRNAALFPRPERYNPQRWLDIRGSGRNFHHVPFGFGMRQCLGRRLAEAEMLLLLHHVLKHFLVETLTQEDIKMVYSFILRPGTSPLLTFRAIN
How it was run: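 The substrate (200 nM, 30 min) was added after a 2 hour compound pre-incubation in lentivirus-transduced V79 cells stably expressing human CYP11B2 plus rat NADPH-P450 reductase.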

N#Cc1ccc(-c2cncc3c2SCCN3S(=O)(=O)c2cccnc2)cc1 [S25, 4-(4-(Pyridin-3-ylsulfonyl)-3,4-dihydro-2H-pyrido[4,3-b][1,4]thiazin-8-yl)benzonitrile]
pIC50 (human CYP11B1): 8.74
pIC50 (human CYP11B2): 10.40

N#Cc1ccc(-c2cncc3c2SCCN3S(=O)(=O)c2cccc3cccnc23)cc1 [S26, 4-(4-(Quinolin-8-ylsulfonyl)-3,4-dihydro-2H-pyrido[4,3-b][1,4]thiazin-8-yl)benzonitrile]
pIC50 (human CYP11B1): 7.55
pIC50 (human CYP11B2): 9.07

COc1ccc(S(=O)(=O)N2CCSc3c(-c4cccc(C#N)c4)cncc32)cc1 [S27, 3-(4-((4-Methoxyphenyl)sulfonyl)-3,4-dihydro-2H-pyrido[4,3-b][1,4]thiazin-8-yl)benzonitrile]
pIC50 (human CYP11B1): 8.54
pIC50 (human CYP11B2): 9.15

COc1ccc(S(=O)(=O)N2CCSc3c(-c4ccc(Cl)cc4)cncc32)cc1 [S28, 8-(4-Chlorophenyl)-4-((4-methoxyphenyl)sulfonyl)-3,4-dihydro-2H-pyrido[4,3-b][1,4]thia zine]
pIC50 (human CYP11B1): 8.74
pIC50 (human CYP11B2): 9.70

COc1ccc(S(=O)(=O)N2CCSc3c(-c4cccc(Cl)c4)cncc32)cc1 [S29, 8-(3-Chlorophenyl)-4-((4-methoxyphenyl)sulfonyl)-3,4-dihydro-2H-pyrido[4,3-b][1,4]thia zine]
pIC50 (human CYP11B1): 8.14
pIC50 (human CYP11B2): 8.82

COc1ccc(S(=O)(=O)N2CCSc3c(-c4ccc(F)cc4)cncc32)cc1 [S30, 8-(4-Fluorophenyl)-4-((4-methoxyphenyl)sulfonyl)-3,4-dihydro-2H-pyrido[4,3-b][1,4]thia zine]
pIC50 (human CYP11B1): 7.72
pIC50 (human CYP11B2): 9.00

COc1ccc(S(=O)(=O)N2CCSc3c(-c4cccc(F)c4)cncc32)cc1 [S31, 8-(3-Fluorophenyl)-4-((4-methoxyphenyl)sulfonyl)-3,4-dihydro-2H-pyrido[4,3-b][1,4]thia zine]
pIC50 (human CYP11B1): 6.87
pIC50 (human CYP11B2): 8.23

COc1ccc(S(=O)(=O)N2CCSc3c(-c4ccc(C(F)(F)F)cc4)cncc32)cc1 [S32, 4-((4-methoxyphenyl)sulfonyl)-8-(4-(trifluoromethyl)phenyl)-3,4-dihydro-2H-pyrido[4,3-b][1,4]thiazine]
pIC50 (human CYP11B1): 6.33
pIC50 (human CYP11B2): 7.99

COc1ccc(S(=O)(=O)N2CCSc3c(-c4ccc(F)c(C)c4)cncc32)cc1 [S33, 8-(4-Fluoro-3-methylphenyl)-4-((4-methoxyphenyl)sulfonyl)-3,4-dihydro-2H-pyrido[4,3-b][1,4]thiazine]
pIC50 (human CYP11B1): 8.27
pIC50 (human CYP11B2): 10.05

COc1ccc(S(=O)(=O)N2CCSc3c(-c4ccc(F)c(Cl)c4)cncc32)cc1 [S34, 8-(3-chloro-4-fluorophenyl)-4-((4-methoxyphenyl)sulfonyl)-3,4-dihydro-2H-pyrido[4,3-b][1,4]thiazine]
pIC50 (human CYP11B1): 7.87
pIC50 (human CYP11B2): 9.77

COc1ccc(S(=O)(=O)N2CCSc3c(-c4ccc(C#N)c(F)c4)cncc32)cc1 [S35, 2-Fluoro-4-(4-((4-methoxyphenyl)sulfonyl)-3,4-dihydro-2H-pyrido[4,3-b][1,4]thiazin-8-yl) benzonitrile]
pIC50 (human CYP11B1): 9.46
pIC50 (human CYP11B2): 9.92

COc1ccc(S(=O)(=O)N2CCSc3c(-c4ccsc4)cncc32)cc1 [S36, 4-((4-Methoxyphenyl)sulfonyl)-8-(thiophen-3-yl)-3,4-dihydro-2H-pyrido[4,3-b][1,4]thiazine]
pIC50 (human CYP11B1): 7.52
pIC50 (human CYP11B2): 8.25

COc1ccc(S(=O)(=O)N2CCSc3c(-c4cccs4)cncc32)cc1 [S37, 4-((4-Methoxyphenyl)sulfonyl)-8-(thiophen-2-yl)-3,4-dihydro-2H-pyrido[4,3-b][1,4]thiazine]
pIC50 (human CYP11B1): 7.08
pIC50 (human CYP11B2): 8.22

COc1ccc(S(=O)(=O)N2CCSc3c(-c4ccco4)cncc32)cc1 [S38, 8-(Furan-2-yl)-4-((4-methoxyphenyl)sulfonyl)-3,4-dihydro-2H-pyrido[4,3-b][1,4]thiazine]
pIC50 (human CYP11B1): 9.15
pIC50 (human CYP11B2): 8.68

COc1ccc(S(=O)(=O)N2CCSc3c(-c4cn[nH]c4)cncc32)cc1 [S39, 4-((4-Methoxyphenyl)sulfonyl)-8-(1H-pyrazol-4-yl)-3,4-dihydro-2H-pyrido[4,3-b][1,4]thia zine]
pIC50 (human CYP11B1): 6.86
pIC50 (human CYP11B2): 6.58

N#Cc1ccc(S(=O)(=O)N2CCSc3c(-c4cc5ccccc5o4)cncc32)cc1 [S40, 4-((8-(Benzofuran-2-yl)-2,3-dihydro-4H-pyrido[4,3-b][1,4]thiazin-4-yl)sulfonyl)benzonitrile]
pIC50 (human CYP11B1): 6.18
pIC50 (human CYP11B2): 8.17

N#Cc1ccc(S(=O)(=O)N2CCSc3c(-c4cc5cc(Cl)ccc5o4)cncc32)cc1 [S41, 4-((8-(5-Chlorobenzofuran-2-yl)-2,3-dihydro-4H-pyrido[4,3-b][1,4]thiazin-4-yl)sulfonyl) benzonitrile]
pIC50 (human CYP11B1): 7.00
pIC50 (human CYP11B2): 9.40

N#Cc1ccc(S(=O)(=O)N2CCSc3c(-c4cc5cc(C#N)ccc5o4)cncc32)cc1 [S42, 2-(4-((4-Cyanophenyl)sulfonyl)-3,4-dihydro-2H-pyrido[4,3-b][1,4]thiazin-8-yl)benzofuran-5-carbonitrile]
pIC50 (human CYP11B1): 7.62
pIC50 (human CYP11B2): 9.52

N#Cc1ccc(S(=O)(=O)N2CCSc3c(-c4cc5ccccc5s4)cncc32)cc1 [S43, 4-((8-(Benzo[b]thiophen-2-yl)-2,3-dihydro-4H-pyrido[4,3-b][1,4]thiazin-4-yl)sulfonyl)benzonitrile]
pIC50 (human CYP11B1): 6.21
pIC50 (human CYP11B2): 8.19

N#Cc1ccc(S(=O)(=O)N2CCSc3c(-c4ccc5occc5c4)cncc32)cc1 [S44, 4-((8-(Benzofuran-5-yl)-2,3-dihydro-4H-pyrido[4,3-b][1,4]thiazin-4-yl)sulfonyl)benzonitrile]
pIC50 (human CYP11B1): 6.11
pIC50 (human CYP11B2): 7.34

Cn1ncc2ccc(-c3cncc4c3SCCN4S(=O)(=O)c3ccc(C#N)cc3)cc21 [S45, 4-((8-(1-Methyl-1H-indazol-6-yl)-2,3-dihydro-4H-pyrido[4,3-b][1,4]thiazin-4-yl)sulfonyl) benzonitrile]
pIC50 (human CYP11B1): 5.84
pIC50 (human CYP11B2): 7.94

N#Cc1ccc(S(=O)(=O)N2CCSc3c(-c4ccc5ncsc5c4)cncc32)cc1 [S46, 4-((8-(Benzo[d]thiazol-6-yl)-2,3-dihydro-4H-pyrido[4,3-b][1,4]thiazin-4-yl)sulfonyl)benzonitrile]
pIC50 (human CYP11B1): 6.49
pIC50 (human CYP11B2): 8.55

N#Cc1ccc(S(=O)(=O)N2CCSc3c(-c4ccc5[nH]ncc5c4)cncc32)cc1 [S48, 4-((8-(1H-Indazol-5-yl)-2,3-dihydro-4H-pyrido[4,3-b][1,4]thiazin-4-yl)sulfonyl)benzonitrile]
pIC50 (human CYP11B1): 7.85
pIC50 (human CYP11B2): 7.60

N#Cc1ccc(S(=O)(=O)N2CCSc3c(-c4ccc5nc[nH]c5c4)cncc32)cc1 [S49, 4-((8-(1H-Benzo[d]imidazol-6-yl)-2,3-dihydro-4H-pyrido[4,3-b][1,4]thiazin-4-yl)sulfonyl)benzonitrile]
pIC50 (human CYP11B1): 8.15
pIC50 (human CYP11B2): 7.57

N#Cc1ccc(S(=O)(=O)N2CCSc3c(-c4ccn5ccnc5c4)cncc32)cc1 [S50, 4-((8-(Imidazo[1,2-a]pyridin-7-yl)-2,3-dihydro-4H-pyrido[4,3-b][1,4]thiazin-4-yl)sulfonyl)benzonitrile]
pIC50 (human CYP11B1): 6.53
pIC50 (human CYP11B2): 7.28

N#Cc1ccc(S(=O)(=O)N2CCSc3c(-c4ccc5c(c4)CC(=O)N5)cncc32)cc1 [S51, 4-((8-(2-Oxoindolin-5-yl)-2,3-dihydro-4H-pyrido[4,3-b][1,4]thiazin-4-yl)sulfonyl)benzonitrile]
pIC50 (human CYP11B1): 5.71
pIC50 (human CYP11B2): 7.99

CN1C(=O)CCc2cc(-c3cncc4c3SCCN4S(=O)(=O)c3ccc(C#N)cc3)cc(F)c21 [S52, 4-((8-(8-Fluoro-1-methyl-2-oxo-1,2,3,4-tetrahydroquinolin-6-yl)-2,3-dihydro-4H-pyrido[4,3-b][1,4]thiazin-4-yl)sulfonyl)benzonitrile]
pIC50 (human CYP11B1): 6.16
pIC50 (human CYP11B2): 7.49

COc1ccc(S(=O)(=O)N2CCSc3c(-c4cc5cc(Cl)ccc5o4)cncc32)cn1 [S53, 8-(5-Chlorobenzofuran-2-yl)-4-((6-methoxypyridin-3-yl)sulfonyl)-3,4-dihydro-2H-pyrido[4,3-b][1,4]thiazine]
pIC50 (human CYP11B1): 7.14
pIC50 (human CYP11B2): 9.05
